Reference: US20120065187A1 (ALCON RESEARCH, LTD, priority 2008, published 2012)
pEC50: −log10 of the molar value. Where a name gives a salt, the structure may show the parent alone. Read-outs that look alike come from different tables or passages of the source.

Tests used:
[1] = molecular target: T1, human H4 (Homo sapiens, UniProt Q9H3N8); assay: In vitro histamine receptor cell-based assay (aequorin bioluminescence), H4 antagonism
T1 construct: host or cells: CHO-K1
Outline: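 Antagonism read as loss of aequorin luminescence after histamine (EC80 final) addition, following 15 min room-temperature compound pretreatment of coelenterazine-h-loaded (5 μM) CHO-K1 cells co-expressing human H4 and Gα16. Efficacy given relative to 10 μM JNJ7777120; agonism excluded in separate no-histamine runs.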

[2] = molecular target: T2, human H1 (Homo sapiens, UniProt P35367); assay: In vitro histamine receptor cell-based assay (aequorin bioluminescence), H1 antagonism; conditions: CHO-K1 cells expressing human H1 and aequorin; histamine at EC80; read-out: H1 Antagonist EC50
T2 construct: host or cells: CHO-K1
T2 sequence (P35367 whole entry): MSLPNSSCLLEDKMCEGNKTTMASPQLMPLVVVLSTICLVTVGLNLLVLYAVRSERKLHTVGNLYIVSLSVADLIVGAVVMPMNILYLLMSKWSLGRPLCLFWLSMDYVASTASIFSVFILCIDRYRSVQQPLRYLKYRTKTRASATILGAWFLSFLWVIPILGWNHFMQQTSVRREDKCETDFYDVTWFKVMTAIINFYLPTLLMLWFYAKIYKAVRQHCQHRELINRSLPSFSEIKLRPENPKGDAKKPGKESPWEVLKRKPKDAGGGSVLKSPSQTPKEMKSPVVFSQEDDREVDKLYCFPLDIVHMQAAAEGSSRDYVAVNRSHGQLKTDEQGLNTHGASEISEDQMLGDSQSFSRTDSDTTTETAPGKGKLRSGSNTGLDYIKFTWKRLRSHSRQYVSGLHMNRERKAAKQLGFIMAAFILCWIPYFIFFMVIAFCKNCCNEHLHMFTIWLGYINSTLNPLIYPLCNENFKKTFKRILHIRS
Outline: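 Antagonism read as drop in aequorin luminescence after histamine challenge at a predetermined EC80, following 15 min compound pretreatment at room temperature. Cells: CHO-K1 carrying human H1, or H4 with Gα16; signal as AUC or amplitude, normalised to 10 μM diphenhydramine (H1) or JNJ7777120 (H4).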

[3] = CHO-K1 cells expressing human H4, aequorin and Gα16, histamine at EC80, read-out: H4 Antagonist EC50

Structure (SMILES)	pEC50 [1, 3]	pEC50 [2]	pEC50 [1]
FC(F)(F)c1ccc2c(c1)nc(N1CCNCC1)c1nccn12 [Example 183, 4-(piperazin-1-yl)-7-(trifluoromethyl)imidazo[1,2-a]quinoxaline hydrochloride]	–	< 5.00	< 5.00
Fc1cc2nc(N3CCNCC3)c3nnnn3c2cc1Cl [Example 188, 8-chloro-7-fluoro-4-(piperazin-1-yl)tetrazolo[1,5-a]quinoxaline]	> 5.00	< 5.00	–
CN1CCN(c2nc3cc(F)c(Cl)cc3n3nnnc23)CC1 [Example 189, 8-chloro-7-fluoro-4-(4-methylpiperazin-1-yl)tetrazolo[1,5-a]quinoxaline]	> 5.00	< 5.00	–
CN1CCN(c2nc3cc(F)c(F)cc3n3nnnc23)CC1 [Example 190, 7,8-difluoro-4-(4-methylpiperazin-1-yl)tetrazolo[1,5-a]quinoxaline]	> 5.00	< 5.00	–
Fc1cc2nc(N3CCNCC3)c3nnnn3c2cc1F [Example 191, 7,8-difluoro-4-(piperazin-1-yl)tetrazolo[1,5-a]quinoxaline]	> 5.00	< 5.00	–
Fc1cc(Cl)cc2nc(N3CCNCC3)c3nncn3c12 [Example 192, 7-chloro-9-fluoro-4-(piperazin-1-yl)-[1,2,4]triazolo[4,3-a]quinoxaline]	< 5.00	< 5.00	–
CN1CCN(c2nc3cc(Br)ccc3n3cnnc23)CC1 [Example 193, 7-bromo-4-(4-methylpiperazin-1-yl)-[1,2,4]triazolo[4,3-a]quinoxaline]	> 5.00	< 5.00	–
Brc1ccc2c(c1)nc(N1CCNCC1)c1nnnn12 [Example 194, 7-bromo-4-(piperazin-1-yl)tetrazolo[1,5-a]quinoxaline hydrochloride]	> 5.00	< 5.00	–
CN1CCN(c2nc3cc(Br)ccc3n3nnnc23)CC1 [Example 195, 7-bromo-4-(4-methylpiperazin-1-yl)tetrazolo[1,5-a]quinoxaline]	> 5.00	< 5.00	–
Fc1cc(Cl)cc2c1nc(N1CCNCC1)c1nncn12 [Example 196, 8-chloro-6-fluoro-4-(piperazin-1-yl)-[1,2,4]triazolo[4,3-a]quinoxaline]	> 5.00	< 5.00	–
CN1CCN(c2nc3c(F)cc(Cl)cc3n3cnnc23)CC1 [Example 197, 8-chloro-6-fluoro-4-(4-methylpiperazin-1-yl)-[1,2,4]triazolo[4,3-a]quinoxaline]	> 5.00	< 5.00	–

More lines, main results first:

pEC50 [1, 3]	pEC50 [2]	Structure (SMILES)	pEC50 [1]
> 5.00	< 5.00	CN1CCN(c2nc3cc(F)c(F)cc3n3ccnc23)CC1 [Example 181, 7,8-difluoro-4-(4-methylpiperazin-1-yl)imidazo[1,2-a]quinoxaline]	–
> 5.00	> 5.00	Fc1cc2nc(N3CCNCC3)c3nccn3c2cc1F [Example 182, 7,8-difluoro-4-(piperazin-1-yl)imidazo[1,2-a]quinoxaline]	–
> 5.00	< 5.00	Fc1cc2nc(N3CCNCC3)c3nncn3c2cc1Br [Example 184, 8-bromo-7-fluoro-4-(piperazin-1-yl)-[1,2,4]triazolo[4,3-a]quinoxaline]	–
> 5.00	< 5.00	CN1CCN(c2nc3cc(F)c(Br)cc3n3cnnc23)CC1 [Example 185, 8-bromo-7-fluoro-4-(4-methylpiperazin-1-yl)-[1,2,4]triazolo[4,3-a]quinoxaline]	–
> 5.00	< 5.00	Fc1cc2nc(N3CCNCC3)c3nnnn3c2cc1C(F)(F)F [Example 186, 7-fluoro-4-(piperazin-1-yl)-8-(trifluoromethyl)tetrazolo[1,5-a]quinoxaline]	–
> 5.00	< 5.00	CN1CCN(c2nc3cc(F)c(C(F)(F)F)cc3n3nnnc23)CC1 [Example 187, 7-fluoro-4-(4-methylpiperazin-1-yl)-8-(trifluoromethyl)tetrazolo[1,5-a]quinoxaline]	–
